Data reported in patent US11987586B1 (TAKEDA PHARMACEUTICAL COMPANY LIMITED, priority 2022, dated 2024).

Molecular target: T1, human OX2 receptor (Homo sapiens, UniProt O43614)
T1 construct: expressed in transfected cells
T1 sequence (O43614 1-444): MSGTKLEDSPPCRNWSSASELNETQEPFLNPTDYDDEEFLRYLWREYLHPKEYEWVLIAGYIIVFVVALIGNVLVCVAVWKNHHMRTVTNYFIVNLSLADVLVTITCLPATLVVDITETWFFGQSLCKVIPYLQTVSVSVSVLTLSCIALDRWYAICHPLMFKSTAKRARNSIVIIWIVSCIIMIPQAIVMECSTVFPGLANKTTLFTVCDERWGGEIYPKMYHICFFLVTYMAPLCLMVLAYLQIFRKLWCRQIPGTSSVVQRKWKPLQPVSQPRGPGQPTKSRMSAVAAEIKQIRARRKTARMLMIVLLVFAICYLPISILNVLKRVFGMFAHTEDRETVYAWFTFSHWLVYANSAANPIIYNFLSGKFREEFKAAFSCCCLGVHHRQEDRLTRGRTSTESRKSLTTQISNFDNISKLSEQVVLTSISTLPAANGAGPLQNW
Assay: Measurement of orexin type 2 receptor agonist activity (calcium fluorescence, Fluo-4, FDSS)
Assay type: cell-based
Conditions: 3 uM test compound; CHO cells expressing human OX2 receptor; DMSO = 0%, 10 nM orexin A (human) = 100%
Method in brief: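 CHO-K1 cells stably expressing human OX2 receptor (residues 1-444) were loaded with Fluo-4 AM plus probenecid. Calcium fluorescence after compound addition was recorded for 1 min 40 s. Activity (%) was scaled between DMSO (0%) and 10 nM orexin A final (100%).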

| OX2R agonist activity (3 uM, %) [%] | Compound |
| --- | --- |
| 90 | COCc1cc(-c2c(F)cc(F)cc2F)c2c(-n3cc4n(c3=O)C[C@@H](NS(C)(=O)=O)C4(F)F)noc2c1 [Example 111, N-{(6R)-7,7-difluoro-2-[6-(methoxymethyl)-4-(2,4,6-trifluorophenyl)-1,2-benzoxazol-3-yl]-3-oxo-2,5,6,7-tetrahydro-3H-pyrrolo[1,2-c]imidazol-6-yl}methanesulfonamide] |
| 99 | CCS(=O)(=O)N[C@@H]1Cn2c(cn(-c3noc4nc(C)cc(-c5c(F)cccc5F)c34)c2=O)C1(F)F [Example 112, N-{(6R)-2-[4-(2,6-difluorophenyl)-6-methyl[1,2]oxazolo[5,4-b]pyridin-3-yl]-7,7-difluoro-3-oxo-2,5,6,7-tetrahydro-3H-pyrrolo[1,2-c]imidazol-6-yl}ethanesulfonamide] |
| 102 | CS(=O)(=O)N[C@@H]1Cn2c(cn(-c3noc4cc(OC(F)F)cc(-c5c(F)cc(F)cc5F)c34)c2=O)C1(F)F [Example 113, N-{(6R)-2-[6-(difluoromethoxy)-4-(2,4,6-trifluorophenyl)-1,2-benzoxazol-3-yl]-7,7-difluoro-3-oxo-2,5,6,7-tetrahydro-3H-pyrrolo[1,2-c]imidazol-6-yl}methanesulfonamide] |
| 93 | CCS(=O)(=O)N[C@@H]1Cn2c(cn(-c3noc4cc(F)cc(-c5c(F)cc(F)cc5F)c34)c2=O)C1(F)F [Example 116, N-{(6R)-7,7-difluoro-2-[6-fluoro-4-(2,4,6-trifluorophenyl)-1,2-benzoxazol-3-yl]-3-oxo-2,5,6,7-tetrahydro-3H-pyrrolo[1,2-c]imidazol-6-yl}ethanesulfonamide] |
| 91 | Cc1cc(-c2c(F)cccc2F)c2c(-n3cc4n(c3=O)C[C@@H](NS(C)(=O)=O)C4(F)F)noc2n1 [Example 118, N-{(6R)-2-[4-(2,6-difluorophenyl)-6-methyl[1,2]oxazolo[5,4-b]pyridin-3-yl]-7,7-difluoro-3-oxo-2,5,6,7-tetrahydro-3H-pyrrolo[1,2-c]imidazol-6-yl}methanesulfonamide] |
| 105 | Cc1cc2onc(N3C[C@H]4N(C[C@@H](NS(C)(=O)=O)C4(F)F)C3=O)c2c(-c2c(F)cc(F)cc2F)c1F [Example 119, N-{(6R,7aR)-7,7-difluoro-2-[5-fluoro-6-methyl-4-(2,4,6-trifluorophenyl)-1,2-benzoxazol-3-yl]-3-oxohexahydro-1H-pyrrolo[1,2-c]imidazol-6-yl}methanesulfonamide] |
| 93 | CCS(=O)(=O)N[C@@H]1Cn2c(cn(-c3noc4cc(F)c(F)c(-c5c(F)cc(F)cc5F)c34)c2=O)C1(F)F [Example 121, N-{(6R)-2-[5,6-difluoro-4-(2,4,6-trifluorophenyl)-1,2-benzoxazol-3-yl]-7,7-difluoro-3-oxo-2,5,6,7-tetrahydro-3H-pyrrolo[1,2-c]imidazol-6-yl}ethanesulfonamide] |
| 101 | CCS(=O)(=O)N[C@@H]1CN2C(=O)N(c3noc4cc(F)cc(-c5c(F)cc(F)cc5F)c34)C[C@@H]2C1(F)F [Example 124, N-{(6R,7aR)-7,7-Difluoro-2-[6-fluoro-4-(2,4,6-trifluorophenyl)-1,2-benzoxazol-3-yl]-3-oxohexahydro-1H-pyrrolo[1,2-c]imidazol-6-yl}ethanesulfonamide] |
| 97 | Cc1cc(-c2c(F)cccc2F)c2c(N3C[C@H]4N(C[C@@H](NS(C)(=O)=O)C4(F)F)C3=O)noc2c1 [Example 126, N-{(6R,7aR)-2-[4-(2,6-Difluorophenyl)-6-methyl-1,2-benzoxazol-3-yl]-7,7-difluoro-3-oxohexahydro-1H-pyrrolo[1,2-c]imidazol-6-yl}methanesulfonamide] |
| 102 | Cc1cc(-c2c(F)cc(F)cc2F)c2c(-n3cc4n(c3=O)C[C@@H](NS(C)(=O)=O)C4(F)F)noc2c1 [Example 127, N-{(6R)-7,7-difluoro-2-[6-methyl-4-(2,4,6-trifluorophenyl)-1,2-benzoxazol-3-yl]-3-oxo-2,5,6,7-tetrahydro-3H-pyrrolo[1,2-c]imidazol-6-yl}methanesulfonamide] |
| 98 | CS(=O)(=O)N[C@@H]1Cn2c(cn(-c3noc4cc(CO)cc(-c5c(F)cc(F)cc5F)c34)c2=O)C1(F)F [Example 128, N-{(6R)-7,7-difluoro-2-[6-(hydroxymethyl)-4-(2,4,6-trifluorophenyl)-1,2-benzoxazol-3-yl]-3-oxo-2,5,6,7-tetrahydro-3H-pyrrolo[1,2-c]imidazol-6-yl}methanesulfonamide] |
| 99 | CS(=O)(=O)N[C@@H]1Cn2c(cn(-c3noc4cc(C(F)(F)F)cc(-c5c(F)cc(F)cc5F)c34)c2=O)C1(F)F [Example 130, N-{(6R)-7,7-difluoro-3-oxo-2-[6-(trifluoromethyl)-4-(2,4,6-trifluorophenyl)-1,2-benzoxazol-3-yl]-2,5,6,7-tetrahydro-3H-pyrrolo[1,2-c]imidazol-6-yl}methanesulfonamide] |
| 94 | COCc1cc(-c2c(F)cccc2F)c2c(-n3cc4n(c3=O)C[C@@H](NS(C)(=O)=O)C4(F)F)noc2c1 [Example 132, N-{(6R)-2-[4-(2,6-difluorophenyl)-6-(methoxymethyl)-1,2-benzoxazol-3-yl]-7,7-difluoro-3-oxo-2,5,6,7-tetrahydro-3H-pyrrolo[1,2-c]imidazol-6-yl}methanesulfonamide] |
| 100 | CS(=O)(=O)N[C@@H]1Cn2c(cn(-c3noc4cc(F)c(F)c(-c5c(F)cc(F)cc5F)c34)c2=O)C1(F)F [Example 135, N-{(6R)-2-[5,6-difluoro-4-(2,4,6-trifluorophenyl)-1,2-benzoxazol-3-yl]-7,7-difluoro-3-oxo-2,5,6,7-tetrahydro-3H-pyrrolo[1,2-c]imidazol-6-yl}methanesulfonamide] |
| 99 | CS(=O)(=O)N[C@@H]1Cn2c(cn(-c3noc4cc(C(F)F)cc(-c5c(F)cccc5F)c34)c2=O)C1(F)F [Example 136, N-{(6R)-2-[6-(difluoromethyl)-4-(2,6-difluorophenyl)-1,2-benzoxazol-3-yl]-7,7-difluoro-3-oxo-2,5,6,7-tetrahydro-3H-pyrrolo[1,2-c]imidazol-6-yl}methanesulfonamide] |
| 101 | CNS(=O)(=O)N[C@@H]1Cn2c(cn(-c3noc4cc(F)cc(-c5c(F)cc(F)cc5F)c34)c2=O)C1(F)F [Example 139, N-{(6R)-7,7-difluoro-2-[6-fluoro-4-(2,4,6-trifluorophenyl)-1,2-benzoxazol-3-yl]-3-oxo-2,5,6,7-tetrahydro-3H-pyrrolo[1,2-c]imidazol-6-yl}-N′-methylsulfuric diamide] |
| 100 | Cc1cc(-c2c(F)cc(F)cc2F)c2c(N3C[C@H]4N(C[C@@H](NS(C)(=O)=O)C4(F)F)C3=O)noc2c1 [Example 140, N-{(6R,7aR)-7,7-difluoro-2-[6-methyl-4-(2,4,6-trifluorophenyl)-1,2-benzoxazol-3-yl]-3-oxohexahydro-1H-pyrrolo[1,2-c]imidazol-6-yl}methanesulfonamide] |
| 94 | CS(=O)(=O)N[C@@H]1Cn2c(cn(-c3noc4cc(C(F)F)cc(-c5c(F)cc(F)cc5F)c34)c2=O)C1(F)F [Example 141, N-{(6R)-2-[6-(difluoromethyl)-4-(2,4,6-trifluorophenyl)-1,2-benzoxazol-3-yl]-7,7-difluoro-3-oxo-2,5,6,7-tetrahydro-3H-pyrrolo[1,2-c]imidazol-6-yl}methanesulfonamide] |
